Laboratory results reported in US20190314312A1, “COMBINATION THERAPY TO INCREASE ENDOGENOUS NITRIC OXIDE (NO) SYNTHESIS” (Yeda Research and Development Co. Ltd., priority 2016, published 2019).
Entries after “also recorded” stand apart in the source; their conditions may differ.

Experiments:
Assay type in all cases: in vivo, mouse
[1] = tested on: C57BL/6J.OlaaHsd mice; assay: DSS-induced colitis, treatment with arginine, citrulline, NaNO2, fisetin or citrulline plus fisetin; settings: day 12
[2] = tested on: C57BL/6J.OlaaHsd mice; assay: as above; settings: for weight loss: 1% DSS 6 days; for Histology score for colitis: FIG. 3D; for clinical improvement in colitis severity: evaluated by change in weight, histological score and colon length, vs control
Description: Colitis was induced in Vav1^Cre:As1^f/f mice and CD11c^Cre:As1^f/f with 1.5% DSS and with 0.8% DSS in the Villin^Cre:As1^f/f (wt/vol), (Dextran Sodium Sulfate, MP Biomedicals; molecular weight 36,000-50,000 Da). The powder was dissolved in the drinking water for 6 days, followed by 5 days of supplementing regular water^20. Each group consisted of eight to ten, 8-10 weeks old, male mice. Experiments were repeated at least three times. “f/f”—flox/flox.
Colonoscopy was performed on days 7 and 11 of the experiment to monitor for severity of colitis. For the procedure, a high resolution mouse video endoscopic system was used, which consists of a miniature endoscope (scope 1.9 mm outer diameter), a xenon light source, a triple chip camera, and an air pump to achieve regulated inflation of the mouse bowel (Karl Storz, Tuttlingen, Germany). Mice were anesthetized by the administration of 4-5% of isoflurane in 100% oxygen at a rate of 0.2-0.5 L/min or by the administration of 100 mg/kg Ketamine/10 mg/kg Xylazine mixture IP, after which, the endoscope was introduced via the anus and the colon was carefully insufflated with an air pump before analysis of the colonic mucosa. The endoscopic procedure was viewed on a color monitor and digitally recorded on tape. Colitis was scored according to the Murine endoscopic index of colitis severity (MEICS), considering differences in the thickness of the bowel wall, changes in blood vessel integrity, mucosal surface, stool consistency or the presence of fibrin, scored each between 0 and 3. The cumulative score ranged from 0 (no signs of inflammation) to 15 (signs of severe inflammation)^21.
Mice were treated with 1% (wt/vol) DSS for 6 days, followed by administration of either arginine 1% (wt/vol) solution (Sigma-Aldrich, St. Louis, Mo., catalogue number A8094) in drinking water, citrulline 1% (wt/vol) (L-citrulline, Chem-Impex International), NaNO2 100 mg (Sigma-Aldrich, St. Louis, Mo., catalogue number S2252), or water as control for additional 6 days.
Fisetin was given by intraperitoneal (i.p.) injection (1 mg/animal) in 30 μL of DMSO twice weekly. The control group was injected with 30 μL of DMSO twice weekly. Each group consisted of ten, 8-weeks old, male mice. Experiments were repeated three times.
Histopathology. On the day of sacrifice, colons were removed and their length was measured. Colon was fixed in 2.5% PFA solution overnight at 4° C., then embedded in paraffin, sectioned and stained with H&E. Tissues were examined in a blinded manner by a pathologist and scored on a 0-4 scale based on the parameters of inflammation severity^20.

[3] = tested on: As1; assay: Immunohistochemistry staining of distal colon sections for As1; settings: after colitis induction, vs control mice with colitis; FIG. 3E, 4A
Description: Four micrometer paraffin embedded tissue sections were deparaffinized and rehydrated. Endogenous peroxidase was blocked with three percent H2O2 in methanol. Sections undergoing for ALS staining were incubated in cold acetone at −20° C. for 7 minutes. For F4/80 and MAC-2 staining, the present inventors performed antigen retrieval in Tris-EDTA pH 9 and 10 mM citric acid pH 6, for 10 minutes, respectively, using a low boiling program in the microwave to break protein cross-links and unmask antigens. After pre-incubation with 20% normal horse serum and 0.2% Triton X-100 for 1 hour at RT (root temperature), sections were incubated with the primary antibodies as follow; ASL (1:100, Abcam, ab97370, CA, USA); F4/80 (1:50, Serotec, Kidllington, UK); Mac-2 (1:400, Cedarlane, N.C., USA). For fluorescent double-staining of ASL and CD11c the mouse anti ASL (1:50 Santa Cruz Biotechnology, Inc. sc-166787, TX, USA) and rabbit anti CD11c (1:50, ab52632) were used. All antibodies were diluted in PBS containing 2% normal horse serum and 0.2% Triton. Sections were incubated overnight at RT followed by 48 hours at 4° C. Sections were washed three times in PBS and incubated with secondary biotinylated IgG at RT (room temperature) for 1.5 hour, washed three times in PBS and incubated with avidin-biotin Complex (Elite-ABC kit, Vector Lab, CA, USA) at RT for additional 90 minutes followed by DAB (Sigma) reaction. For the fluorescent staining the CY2 conjugated anti mouse and CY3 conjugated streptavidin (1:100 and 1:200 respectively, Jackson ImmunoResearch, West Grove, Pa.) were used.

[4] = tested on: enterocytes; assay: FACS analysis of colon epithelial cells (enterocytes) after colitis induction
Description: Colon segment was flushed with cold PBS, longitudinally cut open and rinsed to remove residual luminal contents. Tissue was cut into 3- to 5-mm pieces and incubated in HBSS medium containing EDTA 0.5 M and Hepes 10 mM at 37° C. for 20 minutes, shaken at 180 rpm, to separate epithelial fraction. Supernatant was centrifuged at 4° C. at 500 g for 10 minutes. Recovered tissue was digested in HBSS medium with 2% fetal bovine serum (FBS), 0.05% collagenase II and 0.05% DNase I (Sigma) for 40 minutes. at 37° C., shaken at 180 rpm. LP cells were filtered through 65 μm mesh and centrifuged at 4° C. at 500 g for 10 minutes. The present inventors prepared single cell suspensions from mouse colon by enzymatic digestion and analyzed by polychromatic flow cytometry. Samples were stained with conjugated antibodies or matching isotype controls according to manufacturer's instructions. Data were acquired on an LSRII (BD Biosciences) or FACSCalibur instrument (Becton-Dickinson) with CellQuest software, with a MacsQuant instrument (Miltenyi, Bergisch Gladbach, Germany), and analyzed using BD FACSDiva 6 or FlowJo software (version 7.6.5, or version vX.0.7 Tree Star Inc) or MacsQuant. Colon cells were stained for 30 min at 4° C. in flow cytometry buffer (PBS, 10% FCS and 0.02% azide). For antigens that require intracellular staining (As1, iNOS and S-nitrosocystein), cell surface staining was followed by cell fixation and permeabilization with the Cytofix/Cytoperm kit (BD Biosciences) according to the manufacturer's instructions. For staining, the present inventors used a lineage cocktail of antibodies anti-CD45-APC, Anti-CD64-PE, Anti-CD11c-PB, Anti-326-APC cy7, Anti CD31-PE cy7 (all from BioLegend). After staining for cell surface antigens, intracellular NO was detected by incubation of cells for 15 min at 37° C. with 10 μM DAF-FM diacetate followed by extensive washing, according to the manufacturer's instructions (Molecular Probes). Staining without addition of the DAF-FM probe was considered to be the baseline for gating the positive population. As1 was detected using anti-As1-ALEXA FLUOR® 488 (BD Biosciences), iNOS using anti-iNOS followed by anti-rat 488 (Jackson ImmunoResearch), and nitrosylation using anti-S-nitrosocystein (from abcam) followed by anti-mouse 488 (Jackson ImmunoResearch).

[5] = tested on: intestine; assay: Tunnel staining of intestine (apoptosis); settings: colitis mice, citrulline vs control; FIGS. 3F-H
Description: Tunnel staining was performed by using ApopTag kit detection according to manufacturer's instructions (Millipore, CA, USA). Stained sections were examined and photographed by a fluorescence or bright field microscope (Eclipse Ni-U; Nikon, Tokyo, Japan) equipped with Plan Fluor objectives (10; 20×; 40×) connected to a monochrome camera (DS-Qi1, Nikon).

[6] = arginine, citrulline or NaNO2 vs water control, FIG. 3B
[7] = then arginine 1%, citrulline 1% or NaNO2 100 mg in drinking water 6 days vs water control, FIG. 3A
[8] = arginine, citrulline or NaNO2 vs water control, FIG. 3C
[9] = arginine, citrulline or NaNO2 vs water control

Compound | endoscopic colitis score [1, 6] | weight loss [2, 7] | colon length [2, 8] | Histology score for colitis [2, 9] | clinical improvement in colitis severity ([2]; FIG. 3A-D) | As1 expression in distal colon sections (intestine, enterocytes) [3] | endoscopic colitis score, citrulline in comparison to arginine ([1]; FIG. 3B) | endoscopic colitis score ([1]; fisetin, citrulline or both vs DMSO control, FIG. 4C) | weight loss ([2]; then fisetin 1 mg IP twice, citrulline 1% in drinking water or both vs DMSO control, FIG. 4B) | effectiveness in alleviating colitis severity compared among arginine, citrulline and NO donor ([2]; FIG. 3A-D) | colon length ([2]; fisetin, citrulline or both vs DMSO control, FIG. 4D) | histological score ([2]; fisetin, citrulline or both vs DMSO control, FIG. 4E) | induction of NO synthesis in enterocytes, citrulline compared with arginine ([4]; FIGS. 3I-J) | NO levels in enterocytes (colon epithelial cells) ([4]; after colitis induction, treated vs control, FIGS. 3F-J, 4F-I) | apoptosis in the intestine [5]
O=N[O-].[Na+] [NaNO2] | Significant improvement | significant weight loss reduction in the control group compared to the three treatments | significant reduction in colon length in the control group as compared to the treated colons | significantly lower | significant clinical improvement | reduced expression |  |  |  |  |  |  |  |  | 
N=C(N)NCCC[C@H](N)C(=O)O [arginine] | Significant improvement | significant weight loss reduction in the control group compared to the three treatments | significant reduction in colon length in the control group as compared to the treated colons | significantly lower | significant clinical improvement | upregulated |  |  |  |  |  |  |  |  | 
NC(=O)NCCCC(N)C(=O)O (stereo not drawn) [citrulline, 2-Amino-5-(carbamoylamino)pentanoic acid] | Significant improvement | significant weight loss reduction in the control group compared to the three treatments | significant reduction in colon length in the control group as compared to the treated colons | significantly lower | significant clinical improvement | upregulated; also recorded: more pronounce expression | more beneficial treatment | significant improvement | significant weight loss is documented in the control group compared to the treated mice | the most effective | significant longer | significant reduction | more effective than arginine | increased generation of NO | decreased apoptosis; also recorded: increased apoptosis in the control intestine as compare to colon taken from mice treated with citrulline
